pEC50: −log10 of the molar value.
What was measured:
[1] = test system: WNV protease; test: High Throughput Screen (HTS) protease assay; format: biochemical, West Nile virus (EG101 strain); conditions: 100 nl of 5 mg/ml compound in DMSO per 30.1 μl well; substrate Boc-Gly-Lys-Arg-AMC 50 μM; DMSO controls = 100% activity
Method: Procedures for expression and purification of WNV (EG101 strain) were similar to those described elsewhere by Mueller et al., Int. J. Biochem. Cell. Biol., 39: 606-14 (2007). Briefly, E. coli Top10 F′ cells (Invitrogen, Carlsbad, Calif.) were transformed with the protease expression plasmid. Cells were grown at 37° C. until the OD600 was ˜0.5. Cells were then induced with isopropyl-1-thio-β-D-galactopyranoside (American Bioanalytical, Natick, Mass.) (0.5 mM), and incubated for 4 h at 37° C. Cells were harvested by centrifugation (5000×g) for 15 min at 4° C., washed once with a buffer containing 50 mM Tris-HCl, pH 7.5, and 200 mM NaCl, centrifuged at 5000×g for 15 min at 4° C., and stored at -80° C. until used.
Proteases were purified by suspending bacterial pellets in 50 mM Hepes, pH 7.0, 500 mM NaCl, (buffer A) with 0.05 mg/ml lysozyme. Cells were incubated for 30 min on ice after addition of 10% stock solution of Triton X-100 (final concentration of 0.5%). Cells were disrupted by sonication for 2 min and the soluble fraction was collected after centrifugation (15,000×g) for 30 min at 4° C. The soluble fraction was incubated for 1 h at 4° C. with Talon resin (BD Bioscience, San Jose, Calif.) which was pre-equilibrated in buffer A. The affinity resin was centrifuged at (400×g) for 10 min at 4° C., washed three times with buffer A, and packed into a column. Washing of the column was continued with the buffer A containing 10 mM imidazole, followed by elution of the protease with buffer A containing 150 mM imidazole. The protease was concentrated and further purified by Sephadex G-75 gel filtration chromatography. The purified protease fractions were pooled and dialyzed against a buffer containing 50 mM Tris-HCl pH 7.5 and 300 mM NaCl (4×1 L). Aliquots (100 μl) were frozen at −80° C.
The protease assay (100 μl) described by Mueller et al., Int. J. Biochem. Cell. Biol. 39: 606-14 (2007) was adapted for a 384-well plate format (30.1 μl). Microtiter plates were loaded sequentially with 14 μl of the reaction buffer containing 200 mM Tris-HCl, pH 9.5, and 30% glycerol (TG buffer) using an automated Wellmate (Matrix, Hudson, N.H.) and 6 μl of WNV protease (0.05 μM) (as prepared above) in TG buffer containing 15 mM NaCl (3 mM final concentration). Plates were then centrifuged at 1000×g for 3 min at room temperature to mix samples and pool liquids at the bottom of the wells. Inhibitor compounds (100 nl of 5 mg/ml in dimethyl sulfoxide; DMSO) were added to each well in duplicate by a pin-transfer mechanism of a robotic delivery system. The final inhibitor concentrations in the assays varied due to different molecular weights of the compounds from the libraries that were screened. Plates were incubated at room temperature to allow for formation of protease/inhibitor complexes. The fluorogenic substrate, t-butyl-oxycarbonyl(Boc)-Gly-Lys-Arg-7-amino-4-methyl coumarin (AMC) (10 μl in TG buffer; 50 μM final concentration in the reaction mixture), was added using the Wellmate, and the plates were centrifuged for 3 min at 1000×g and incubated at room temperature for 15 min. Fluorescence was measured at excitation and emission wavelengths of 385 nm and 465 nm, respectively, on a Perkin-Elmer (Waltham, Mass.) spectrofluorometer. To validate the assay conditions, aprotinin (bovine pancreatic trypsin inhibitor, BPTI) was used as a positive control. Assay mixtures containing DMSO were used as negative controls. The average of fluorescence values in duplicate wells for a given compound was used to determine the percent activity by taking the values obtained with DMSO controls as 100%. Compounds 1-11, 18-32, and 37-101 above were identified. […] Compounds 12-17 are compounds related to those identified in the HTS screen that also show significant WNV protease inhibition, i.e., >95%.

[2] = test system: Dengue 2 replicon expressing BHK cells; test: Replicon inhibition assay (Renilla luciferase), Dengue 2 replicon expressing BHK cells; format: cell-based, Dengue virus (DENV2); conditions: for pEC50: Dengue virus; for DENV2 BHK replicon inhibition (FIG. 2): 25 μM final concentration, 24 hours, BHK cells
Method: (§1) Baby Hamster Kidney (BHK) and African green monkey kidney epithelial cells (Vero) were cultured in Dulbecco's Modified Eagle Medium (DMEM) (Cellgro®; Mediatech, Inc., Manassas, Va.) supplemented with 10% fetal bovine serum, MEM nonessential amino acid (Cellgro®) (5 ml/liter), and Penicillin-Streptomycin (2.5 ml/liter). Dengue 2 replicon expressing BHK cells and WNV replicon expressing Vero cells were cultured in DMEM as described above containing additionally Geneticin or G418 (Fisher Scientific®, Pittsburgh, Pa.) to maintain the selective pressure of the replicon expressing cells.
(§2) Dengue 2 replicon expressing BHK cells and WNV replicon expressing Vero cells were plated 100 μl into a black 96 well plate (Greiner Bio-One; Monroe, N.C.) with 10^5 cells/ml concentrations. After 6 hours of incubation, 1 μl of each compound diluted in DMSO to 2.5 mM was added into each well to obtain a 25 μM as the final concentration. Cells were incubated at 37° C. in a humidified CO2 (5%) chamber for 24 hours. The media was then removed and the cells are washed with PBS before adding 20 μl of lysis buffer to each well. A Renilla luciferase assay was performed with the addition of 50 μl substrate (Promega Corporation; Madison, Wis.) with a 2 second delay and a 10 second measurement in a Centro LB 960 plate luminescence plate reader (Berthold Technologies; Oak Ridge, Tenn.). The data was analyzed and plotted with GraphPad Prism 5 (GraphPad Software, Inc.; La Jolla, Calif.).
Renilla luciferase activity was measured as described above 24 hours after the addition of the compounds.

[3] = test system: WNV replicon expressing Vero cells; test: Replicon inhibition assay (Renilla luciferase), WNV replicon expressing Vero cells; format: cell-based, West Nile virus (WNV); conditions: for WNV replicon inhibition (FIG. 1): 25 μM final concentration, 24 hours, Vero cells; for pEC50: West Nile virus, Vero, 24 h
Method: as §1, §2
Specifically, the cells were prepared as above and the concentration of the compounds were varied (see Table 2). Renilla luciferase activity was measured as described above 24 hours after the addition of the compounds.

[4] = Cytotoxicity assay (MTT), naïve Vero cells; format: cell-based; conditions: African green monkey, 18 hours incubation
Method: as §1
(§3) Naïve Vero cells were cultured in the presence of varying concentrations of the Compound 33, Compound 34, and Compound 35 to calculate CC50 values. In the same way, Compound 33, Compound 34, Compound 35, and Compound 36 were tested in BHK cells. Naïve BHK and Vero cells were prepared in 96-well plates as described above at various final concentrations. After 18 hours of incubation, 10 μl of MTT reagent (Chemicon; Temecula, Calif.) is added into each well. The cells were incubated for 2 hours before adding 100 μl of detergent and were read in a spectrophotometer as described in the manufacturer's protocol.

[5] = Cytotoxicity assay (MTT), naïve BHK cells; format: cell-based; conditions: hamster, 18 hours incubation
Method: as §1, §3

SMILES | % Inhibition (reduction in protease activity) [1] | also measured
Oc1c(C(Nc2nc3ccccc3s2)c2ccccc2)ccc2cccnc12 (stereo not drawn) [Compound 13] | >95% | pEC50 ([2]; DENV2, BHK): ~5.12
Oc1ccccc1C(Nc1nc2ccccc2s1)c1ccc2cccnc2c1O (stereo not drawn) [Compound 16] | >95% | pEC50 ([2]; DENV2, BHK): ~5.35
Oc1c(C(Nc2nccs2)c2cccc(OCc3ccccc3)c2)ccc2cccnc12 (stereo not drawn) [Compound 17] | >95% | pEC50 ([2]; DENV2, BHK): ~5.08
Oc1c(CN2CCOCC2)ccc2cccnc12 [Compound 33] | – | WNV replicon inhibition (FIG. 1) [3]: inhibitory; pEC50 [3]: 5.10; DENV2 BHK replicon inhibition (FIG. 2) [2]: inhibitory; pEC50 ([2]; BHK, 24 h): 4.97
Oc1c(CN2CCOCC2)cc(Cl)c2cccnc12 [Compound 34] | – | WNV replicon inhibition (FIG. 1) [3]: inhibitory; pEC50 [3]: 4.84; DENV2 BHK replicon inhibition (FIG. 2) [2]: inhibitory; pEC50 ([2]; BHK, 24 h): 4.46; CC50 at 18 h [4]: 355 µM; CC50 at 18 h [5]: 170 µM
CCN(CC)Cc1cc(Cl)c2cccnc2c1O [Compound 35] | – | WNV replicon inhibition (FIG. 1) [3]: inhibitory; pEC50 [3]: 5.47; DENV2 BHK replicon inhibition (FIG. 2) [2]: inhibitory; pEC50 ([2]; BHK, 24 h): 5.63; CC50 at 18 h [4]: 60.9 µM; CC50 at 18 h [5]: 70.1 µM
Oc1c(CN2CCOCC2)cc(Cl)c2c1NCCC2 [Compound 36] | – | DENV2 BHK replicon inhibition (FIG. 2) [2]: inhibitory; pEC50 ([2]; BHK, 24 h): 4.20; CC50 at 18 h [5]: 220 µM
O=C(CCc1ccccc1)Nc1nnc(SCc2ccc(F)cc2)s1 [Compound 69] | 61% | –
COc1ccc(Cl)cc1NC(=O)c1cc(-c2ccco2)on1 [Compound 70] | 60% | –
O=C(CCC(=O)c1ccc(Cl)cc1)Nc1c(F)cccc1F [Compound 71] | 59% | –
Nc1sc2c(c1C(=O)NCCc1ccccc1)CCC2 [Compound 72] | 59% | –
Cc1ccc(NC(=O)c2cnn(-c3ccccc3)c2NC(=O)c2ccco2)cc1 [Compound 73] | 58% | –
O=C(/C=C/c1ccccc1)Nc1c2c(nn1-c1ccccc1)CSC2 [Compound 74] | 57% | –
O=C(c1cc(Br)cc2c1OCC2)N1CCOCC1 [Compound 75] | 57% | –
CCC(C(=O)Nc1c2c(nn1-c1ccc(F)cc1)CSC2)c1ccccc1 (stereo not drawn) [Compound 76] | 57% | –
Cc1ccc(CNC(=O)Cc2ccc(-n3cccc3)cc2)cc1 [Compound 77] | 56% | –
COc1ccc(NC(=O)C(NC(=O)Cc2cccs2)c2ccccc2)cc1 (stereo not drawn) [Compound 78] | 56% | –
CC1=Nc2ccccc2N=C(NC(=O)CSc2nnnn2-c2ccccc2)C1c1ccccc1 (stereo not drawn) [Compound 79] | 56% | –

SMILES | % Inhibition (reduction in protease activity) [1] | also measured
Cc1ccc(/N=C2\NC(=O)C(CC(=O)Nc3ccc(OC(F)(F)F)cc3)S2)cc1 (stereo not drawn) [Compound 81] | 55% | –
O=C(Nc1ccc(Cl)cc1)Oc1ccccc1N1CCSCC1 [Compound 82] | 55% | –
CCOC(=O)c1c(CC(C)C)csc1NC(=O)Cc1ccccc1 [Compound 83] | 54% | –
Cc1nnc(NC(=O)CSc2cn(Cc3ccccc3)c3ccccc23)s1 [Compound 84] | 54% | –
Cc1ccc(NC(=O)c2cc(-c3ccc(O)cc3)on2)cc1 [Compound 85] | 54% | –
CCn1c2ccccc2c2nnc(SCC(=O)Nc3ccc(S(N)(=O)=O)cc3)nc21 [Compound 86] | 54% | –
CCc1ccc(-c2cc(C(=O)Nc3ccc(S(=O)(=O)NC(C)=O)cc3)c3ccccc3n2)cc1 [Compound 87] | 54% | –
Cc1cc(NC(=O)CSc2ccccn2)no1 [Compound 88] | 54% | –
O=C(NCc1csc2ccccc12)c1cc(F)cc2c1OCOC2 [Compound 89] | 53% | –
CC(C)c1ccc(NC(=O)CSC(=O)c2ccccc2)cc1 [Compound 92] | 52% | –
COc1cccc(CNC(=O)c2[nH]c(C)c(C(=O)NC3CCCCC3)c2C)c1 [Compound 93] | 52% | –
O=C(CSc1oc(-c2cccs2)nc1S(=O)(=O)c1ccccc1)NC1CCCCC1 [Compound 95] | 52% | –
CCCCC1CCC(C(=O)Nc2c3c(nn2-c2ccccc2C)C[S+]([O-])C3)CC1 (stereo not drawn) [Compound 96] | 51% | –
N#CCC(=O)Nc1ccc(Oc2ccccc2)cc1 [Compound 97] | 51% | –
Cc1ccc(-c2noc(CCC(=O)NCC3CCN(Cc4cccc(C)c4)CC3)n2)cc1 [Compound 98] | 51% | –
O=C(Nc1nc(SCc2ccc(F)cc2)ns1)c1cccs1 [Compound 99] | 50% | –
CCc1ccccc1NC(=O)Cn1cccc1C1=NC(c2ccccc2)CO1 (stereo not drawn) [Compound 100] | 50% | –
Cc1ccc(-n2nc3c(c2NC(=O)CCC2CCCC2)CSC3)cc1 [Compound 101] | 50% | –

— US8563580B2, “Flavivirus inhibitors and methods for their use” (Georgetown University, priority 2008, dated 2013)
